One block for each compound: values may come before it. Active and inactive are the calls of the source.
Tests used:
[1] = reduced cellular PGC1a acetyl-lysine signal – cell-based, cherry-picked samples, dose response (AID 720514); type: functional;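 also: potency may reflect raised or lowered acetylation signal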
[2] = molecular target: T1, DNA repair protein RAD52 homolog (Homo sapiens, UniProt P43351); type: functional, biochemical
T1 sequence (P43351 whole entry): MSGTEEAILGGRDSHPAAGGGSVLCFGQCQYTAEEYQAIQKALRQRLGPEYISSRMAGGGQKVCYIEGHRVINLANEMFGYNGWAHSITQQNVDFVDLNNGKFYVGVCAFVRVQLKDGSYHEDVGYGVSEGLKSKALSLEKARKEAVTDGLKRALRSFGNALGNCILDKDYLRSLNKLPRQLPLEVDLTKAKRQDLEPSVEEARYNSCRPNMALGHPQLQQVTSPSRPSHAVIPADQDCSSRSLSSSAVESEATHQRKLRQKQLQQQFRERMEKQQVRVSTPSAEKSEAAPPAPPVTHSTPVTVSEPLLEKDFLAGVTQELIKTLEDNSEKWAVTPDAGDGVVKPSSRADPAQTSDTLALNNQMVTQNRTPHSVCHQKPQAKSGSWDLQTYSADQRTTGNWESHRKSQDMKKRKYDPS

[3] = inhibition of ADAM10 peptide cleavage – biochemical, FRET peptide substrate, recombinant human ADAM10, selectivity assay for ADAM17 exosite inhibitor project, dose response (AID 743259);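 also: ADAM10 enzyme cleaving a FRET peptide substrate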
[4] = molecular target: Disintegrin and metalloproteinase domain-containing protein 17 (Homo sapiens, UniProt P78536); experiment: exosite inhibitors of ADAM17, dose response, biochemical (AID 743260)
[5] = molecular target: NAD-dependent protein deacylase sirtuin-5, mitochondrial (Homo sapiens, UniProt Q9NXA8); experiment: sirtuin-5 deacylation blockers, concentration series – biochemical, fluorescence imaging, cherry-pick, set 5, dose response (AID 720591);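 also: desuccinylation of succinyl peptide AMC substrate read as fluorescence after trypsin release; potency of inhibitors that lower fluorescence and may act on trypsin instead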
[6] = OVCAR8 cell viability loss – plate reader, dry powder samples, PAX8 project, dose response (AID 743197); type: functional, cell-based; conditions: OVCAR-8
[7] = molecular target: Paired box protein Pax-8 (Homo sapiens, UniProt Q06710); experiment: PAX8 transcriptional activity inhibition in RMG-I – RMG-I cells, luciferase, cherry-pick, dose response (AID 687027); type: functional, cell-based;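 also: luciferase reporter driven by Pax8 target thyroperoxidase promoter measured by SteadyGlo luminescence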
[8] = IGROV1 cell killing – plate reader, dry powder samples, PAX8 inhibitor project, dose response (AID 743043); type: functional, cell-based; conditions: IGROV-1
[9] = OVCAR-3 cell viability loss – plate reader, dry powder samples, PAX8 inhibitor project, dose response (AID 743044); type: functional, cell-based
[10] = T. cruzi growth inhibition in host cells, dose response, cell-based, plate reader, dry powder, set 2 (AID 652275); type: functional
[11] = molecular target: Prothrombin (Homo sapiens, UniProt P00734); experiment: Thrombin 1536 HTS Dose Response Confirmation. [Related pubchem assays: 1046 (Thrombin 1536 HTS; hits were confirmed in this assay)]; type: functional
[12] = molecular target: T2, RNA-editing ligase 1, mitochondrial (Trypanosoma brucei brucei, UniProt P86926); experiment: inhibition of trypanosome RNA editing ligase – biochemical, fluorescence, Trypanosoma brucei, dose response (AID 1117295); type: functional
T2 sequence (P86926 whole entry): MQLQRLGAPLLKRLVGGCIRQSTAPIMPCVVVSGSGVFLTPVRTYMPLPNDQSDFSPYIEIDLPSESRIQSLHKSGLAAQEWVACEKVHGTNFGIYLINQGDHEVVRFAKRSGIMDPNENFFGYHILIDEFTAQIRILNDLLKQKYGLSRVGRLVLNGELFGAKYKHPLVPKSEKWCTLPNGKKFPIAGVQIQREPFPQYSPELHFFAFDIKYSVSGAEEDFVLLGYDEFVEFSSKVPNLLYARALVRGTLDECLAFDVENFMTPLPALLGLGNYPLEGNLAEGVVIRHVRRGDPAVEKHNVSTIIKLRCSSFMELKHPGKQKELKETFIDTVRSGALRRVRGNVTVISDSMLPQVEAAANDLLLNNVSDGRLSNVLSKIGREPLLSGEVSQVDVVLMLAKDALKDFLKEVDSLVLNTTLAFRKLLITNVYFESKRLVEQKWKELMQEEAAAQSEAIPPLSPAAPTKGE

[13] = toxicity to human HepG2 hepatoma cells – cell-based, plate reader, dry powder samples, cytotoxicity control, dose response (AID 1159569); type: functional;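 also: inhibitor potency with signal falling toward the positive control level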
[14] = P. falciparum Dd2 growth inhibitors, dose response, SYBR Green, cherry-picked samples (AID 1159567); type: functional, cell-based
[15] = growth inhibition of PfATP4-mutant resistant parasites – NITD609-resistant line, SYBR Green, dry powder, dose response (AID 1159571); type: functional, cell-based;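 also: parasites synchronized at ring stage by sorbitol before testing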
[16] = Dd2 malaria parasite growth inhibition potency – SYBR Green, dry powder samples, dose response (AID 1159566); type: functional, cell-based;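 also: potency for growth inhibition with lower SYBR green DNA signal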
[17] = growth inhibition of yeast DHODH-expressing 3D7 parasites – SYBR Green, dry powder samples, dose response (AID 1159570); type: functional, cell-based;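 also: parasite growth measured after 72 hours of compound exposure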
[18] = toxicity to human hepatoma HepG2 cells – cell-based, cherry-picked samples, cytotoxicity control, dose response (AID 1159577); type: functional

Paired box protein Pax-8, sequence (Q06710 whole entry): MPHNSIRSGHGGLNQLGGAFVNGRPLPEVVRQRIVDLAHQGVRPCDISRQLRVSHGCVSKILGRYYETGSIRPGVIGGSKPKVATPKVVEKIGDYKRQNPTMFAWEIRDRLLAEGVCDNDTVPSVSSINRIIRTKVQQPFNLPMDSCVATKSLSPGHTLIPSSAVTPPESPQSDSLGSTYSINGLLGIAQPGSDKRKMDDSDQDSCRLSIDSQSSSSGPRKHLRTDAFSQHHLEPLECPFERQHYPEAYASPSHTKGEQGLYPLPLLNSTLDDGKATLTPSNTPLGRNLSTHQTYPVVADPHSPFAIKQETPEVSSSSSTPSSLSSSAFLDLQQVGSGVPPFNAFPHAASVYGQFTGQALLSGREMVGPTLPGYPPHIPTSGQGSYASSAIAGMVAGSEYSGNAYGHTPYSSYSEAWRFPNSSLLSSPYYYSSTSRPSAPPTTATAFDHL
Disintegrin and metalloproteinase domain-containing protein 17, sequence (P78536 whole entry, the tested form may be a part): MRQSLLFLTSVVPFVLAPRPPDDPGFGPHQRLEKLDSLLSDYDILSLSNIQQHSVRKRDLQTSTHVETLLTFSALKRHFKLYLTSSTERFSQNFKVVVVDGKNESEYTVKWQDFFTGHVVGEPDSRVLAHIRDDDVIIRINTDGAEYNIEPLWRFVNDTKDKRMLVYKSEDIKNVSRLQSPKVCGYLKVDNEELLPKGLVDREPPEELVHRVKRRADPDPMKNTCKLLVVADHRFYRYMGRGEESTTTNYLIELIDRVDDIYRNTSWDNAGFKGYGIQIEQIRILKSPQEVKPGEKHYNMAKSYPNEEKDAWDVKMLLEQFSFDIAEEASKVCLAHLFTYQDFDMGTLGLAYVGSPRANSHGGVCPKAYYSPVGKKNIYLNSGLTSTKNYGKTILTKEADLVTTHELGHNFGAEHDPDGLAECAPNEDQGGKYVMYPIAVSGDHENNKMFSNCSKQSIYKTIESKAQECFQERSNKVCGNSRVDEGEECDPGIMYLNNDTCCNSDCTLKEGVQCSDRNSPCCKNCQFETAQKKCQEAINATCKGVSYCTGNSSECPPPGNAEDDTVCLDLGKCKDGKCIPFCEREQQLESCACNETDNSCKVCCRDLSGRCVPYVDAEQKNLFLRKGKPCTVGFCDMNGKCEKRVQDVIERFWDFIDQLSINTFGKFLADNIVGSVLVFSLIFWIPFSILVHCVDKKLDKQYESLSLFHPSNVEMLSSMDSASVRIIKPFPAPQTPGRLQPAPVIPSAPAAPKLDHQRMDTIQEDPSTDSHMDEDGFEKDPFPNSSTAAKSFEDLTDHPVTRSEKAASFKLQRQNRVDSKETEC
NAD-dependent protein deacylase sirtuin-5, mitochondrial, sequence (Q9NXA8 whole entry): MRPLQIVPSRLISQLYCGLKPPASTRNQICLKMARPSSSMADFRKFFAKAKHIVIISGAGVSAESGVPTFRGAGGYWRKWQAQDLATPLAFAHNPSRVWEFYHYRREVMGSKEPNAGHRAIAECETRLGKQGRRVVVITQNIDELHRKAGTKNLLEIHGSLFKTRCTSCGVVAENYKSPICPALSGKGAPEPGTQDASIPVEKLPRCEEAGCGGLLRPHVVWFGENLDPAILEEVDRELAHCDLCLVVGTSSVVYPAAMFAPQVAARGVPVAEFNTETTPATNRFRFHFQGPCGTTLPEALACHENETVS

Structure (SMILES): CC1CCCN(CC(=O)N2CCCc3ccccc32)C1.[O-][Cl+3]([O-])([O-])O (stereo not drawn)
AC50 [1]: 27.1 µM (active)

AC50 [2]: 10.9 µM (active)
Structure (SMILES): NCCCC[C@H]1CN=C(S)N1CCCCC1CCCCC1

IC50 [4]: > 69.5 µM (inactive)
Structure (SMILES): Cc1ccc(CN2C(=O)[C@H]3Cc4c([nH]c5ccccc45)C(C)(C)N3C2=O)cc1
IC50 [3]: > 69.5 µM (inactive)

AC50 [2]: 29.3 µM (active)
Structure (SMILES): CCN(CC)CCNC(=O)C(=O)NCC1OCCN1S(=O)(=O)c1cccs1 (stereo not drawn)

AC50 [5]: > 30 µM (inactive)
Structure (SMILES): Cc1cc(NC(=O)CSc2nnc3ccc(-c4ccccc4)nn23)no1

Structure (SMILES): C[C@H]1CCCCO[C@H](CN(C)Cc2ccc(C(F)(F)F)cc2)[C@@H](C)CN([C@@H](C)CO)C(=O)c2cc(NS(=O)(=O)c3ccc(Cl)cc3)ccc2O1
AC50 [6]: > 70 µM (inactive)
AC50 [7]: 4.73 µM (active)
AC50 [8]: 36 µM (active)

Structure (SMILES): C[C@@H]1CCCCO[C@H](CN(C)Cc2ccc(C(F)(F)F)cc2)[C@@H](C)CN([C@@H](C)CO)C(=O)c2cc(NS(=O)(=O)c3ccc(F)cc3)ccc2O1
AC50 [6]: 29.7 µM (active)
AC50 [7]: 8.57 µM (active)
AC50 [8]: 31 µM (active)
AC50 [9]: 21.5 µM (active)

Structure (SMILES): C[C@@H]1CN([C@H](C)CO)C(=O)c2cc(NC(=O)Nc3ccc(F)cc3)ccc2O[C@@H](C)CCCCO[C@H]1CN(C)C(=O)NC1CCCCC1
AC50 [7]: 6.55 µM (active)
AC50 [9]: 43.1 µM (active)

Structure (SMILES): CCC(=O)N1CC[C@@H]2[C@H]1c1cc(Br)ccc1N(C)[C@@H]2CO
AC50 [10]: 11.7 µM (active)

Structure (SMILES): CC(C)N1C[C@@H](CN(C)Cc2ccc(Cl)cc2)Oc2c(C(=O)Nc3ccnnc3)cccc2C1=O
AC50 [10]: 0.299 µM (active)

Structure (SMILES): CC(C)N1CC2(CN(Cc3ccc(F)c(F)c3)C2)Oc2c(NC(=O)c3ccncc3)cccc2C1=O
AC50 [10]: 1.05 µM (active)

IC50 [11]: > 50 µM (not active)
Structure (SMILES): CC(=N)/C(C#N)=C(/O)CSc1nc2cc(Cl)ccc2s1

IC50 [12]: > 96.6 µM (inactive)
Structure (SMILES): COC(=O)C1=C(C)N(Cc2ccc(C(F)(F)F)cc2)C(NCc2ccccc2C(F)(F)F)=NC1c1ccc(Cl)cc1 (stereo not drawn)

IC50 [12]: > 96.6 µM (inactive)
Structure (SMILES): COC(=O)C1=C(C)N(Cc2cccc(C(F)(F)F)c2)C(NCc2ccccc2C(F)(F)F)=NC1c1cccc(F)c1 (stereo not drawn)

Structure (SMILES): CCCc1cn(CC[C@@H]2CC[C@@H](NS(=O)(=O)c3ccc(-c4ccccc4)cc3)[C@H](CO)O2)nn1
AC50 [13]: 37.5 µM (active)
AC50 [14]: 1.7 µM (active)
AC50 [15]: 1.82 µM (active)
AC50 [16]: 1.99 µM (active)
AC50 [17]: 2.17 µM (active)
AC50 [18]: 23.3 µM (active)

Structure (SMILES): C(=C\c1ccc([C@H]2[C@@H]3CN(Cc4cccnc4)C[C@H]2N3)cc1)/c1ccccc1
AC50 [13]: 18.6 µM (active)
AC50 [14]: 2.81 µM (active)
AC50 [15]: 3.95 µM (active)
AC50 [16]: 3.79 µM (active)
AC50 [17]: 4.3 µM (active)
AC50 [18]: 27.5 µM (active)

Structure (SMILES): OC[C@@H]1CC[C@@H]2O[C@H](CCc3ccc(C#CCc4ccccc4)cc3)[C@H](n3cc(-c4ccccc4)nn3)C[C@@H]2O1
AC50 [13]: > 100 µM (inactive)
AC50 [14]: 1.45 µM (active)
AC50 [15]: 1.53 µM (active)
AC50 [16]: 0.879 µM (active)
AC50 [17]: 1.79 µM (active)

Source: ChEMBL document CHEMBL1201862, “PubChem BioAssay data set” (2004)
